The results in this text go back to ChEMBL document CHEMBL5104090, “Recent advances in the medicinal chemistry of carbonic anhydrase inhibitors” (Eur J Med Chem, 2021).

Structures are written as SMILES. Where only a bound is given, the exact number is not on record here.

Targets include Carbonic anhydrase 12 (Homo sapiens, UniProt O43570); Carbonic anhydrase 7 (Homo sapiens, UniProt P43166); Carbonic anhydrase 4 (Homo sapiens, UniProt P22748).
Experiment [1] addresses T1, Carbonic anhydrase 9 (Homo sapiens, UniProt Q16790).
For experiment [2], the target named is T2, Carbonic anhydrase 2 (Homo sapiens, UniProt P00918).
For experiment [3], the target named is T3, Carbonic anhydrase 1 (Homo sapiens, UniProt P00915).
T3 sequence (P00915 whole entry): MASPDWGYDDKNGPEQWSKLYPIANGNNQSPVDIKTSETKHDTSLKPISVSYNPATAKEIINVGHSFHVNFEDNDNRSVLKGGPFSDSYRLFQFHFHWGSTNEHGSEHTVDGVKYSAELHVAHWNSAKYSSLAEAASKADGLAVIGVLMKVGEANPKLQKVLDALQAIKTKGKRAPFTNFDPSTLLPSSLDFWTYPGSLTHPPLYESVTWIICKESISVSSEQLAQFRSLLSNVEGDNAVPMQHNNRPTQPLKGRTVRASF
Experiment [4] deals with T3, Carbonic anhydrase 1. This is another data set of the same source.
For experiment [5], the target named is T2, Carbonic anhydrase 2. This is another data set of the same source.
In experiment [6] the target is T1, Carbonic anhydrase 9. The source holds these as a separate data set.
In experiment [7] the target is T2, Carbonic anhydrase 2. The source holds these as a separate data set.
In experiment [8] the target is T3, Carbonic anhydrase 1. The source holds these as a separate data set.
In experiment [9] the target is T1, Carbonic anhydrase 9. This is another data set of the same source.
Experiment [10] has as its target T2, Carbonic anhydrase 2. The source holds these as a separate data set.
The target in experiment [11] is T1, Carbonic anhydrase 9. The source holds these as a separate data set.
The target in experiment [12] is T3, Carbonic anhydrase 1. This is another data set of the same source.

Sequence of Carbonic anhydrase 7 (P43166 whole entry): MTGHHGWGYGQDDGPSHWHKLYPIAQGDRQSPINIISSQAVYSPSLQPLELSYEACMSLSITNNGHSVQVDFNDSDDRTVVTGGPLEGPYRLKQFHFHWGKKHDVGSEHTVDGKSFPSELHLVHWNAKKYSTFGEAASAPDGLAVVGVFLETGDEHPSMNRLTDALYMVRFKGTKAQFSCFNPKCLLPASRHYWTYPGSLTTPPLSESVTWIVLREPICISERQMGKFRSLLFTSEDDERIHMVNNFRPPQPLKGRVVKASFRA
Sequence of Carbonic anhydrase 4 (P22748 whole entry): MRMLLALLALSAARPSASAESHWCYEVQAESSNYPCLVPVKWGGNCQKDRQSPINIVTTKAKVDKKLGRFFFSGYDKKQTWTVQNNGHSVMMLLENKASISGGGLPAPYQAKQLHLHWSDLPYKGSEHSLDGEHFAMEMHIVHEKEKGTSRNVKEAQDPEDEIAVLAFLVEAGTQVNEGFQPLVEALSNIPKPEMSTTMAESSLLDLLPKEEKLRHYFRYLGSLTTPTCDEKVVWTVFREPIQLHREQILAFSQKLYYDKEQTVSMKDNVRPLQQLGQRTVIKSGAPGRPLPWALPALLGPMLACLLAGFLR
Sequence of Carbonic anhydrase 12 (O43570 whole entry): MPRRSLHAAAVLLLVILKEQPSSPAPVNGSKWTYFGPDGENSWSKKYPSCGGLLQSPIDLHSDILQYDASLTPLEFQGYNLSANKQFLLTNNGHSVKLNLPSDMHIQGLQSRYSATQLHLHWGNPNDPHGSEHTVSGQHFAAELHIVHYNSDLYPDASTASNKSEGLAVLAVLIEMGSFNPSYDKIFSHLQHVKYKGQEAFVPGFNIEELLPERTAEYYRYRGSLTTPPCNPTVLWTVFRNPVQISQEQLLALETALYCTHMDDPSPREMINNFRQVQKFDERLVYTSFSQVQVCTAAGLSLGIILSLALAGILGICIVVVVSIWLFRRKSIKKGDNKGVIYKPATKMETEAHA

For the molecule `Cn1c(-c2ccc(Cl)cc2)nc2cc(C(=O)NO)ccc21`, the IC50 against Carbonic anhydrase 9 [1], against Carbonic anhydrase 12, against Carbonic anhydrase 2 [2] and at Carbonic anhydrase 1 [3] was above 360 nM in each case.
Take `NS(=O)(=O)c1ccc2[nH]c(-c3ccccc3)nc2c1`: the half-maximal inhibitory concentration (IC50) against Carbonic anhydrase 9 [1], against Carbonic anhydrase 12, on Carbonic anhydrase 2 [2] and against Carbonic anhydrase 1 [3] was above 360 nM each time.
For `Cc1ccc(C2CC(c3cccs3)=NN2c2ccc(S(N)(=O)=O)cc2)cc1` (stereo unspecified), the Ki at Carbonic anhydrase 1 [4] was determined as 24.2 nM; on Carbonic anhydrase 2 [5] it was 37.3 nM.
Regarding `COc1cccc([SeH])c1`, the Ki on Carbonic anhydrase 7 came out at 760 nM; on Carbonic anhydrase 9 [6], 280 nM.
As for `Cn1c(-c2ccccc2)nc2cc(B(O)O)ccc21`, the IC50 at Carbonic anhydrase 9 [1], against Carbonic anhydrase 12, at Carbonic anhydrase 2 [2] and on Carbonic anhydrase 1 [3] was above 360 nM each time.
Consider `Brc1ccc(NN=C2C(c3ccccc3)=NN=C2c2ccccc2)cc1`, for which the inhibition constant (Ki) on Carbonic anhydrase 2 [7] was determined as 0.68 nM; at Carbonic anhydrase 1 [8] it was 1.06 nM.
With `Cn1c(-c2ccc(B(O)O)cc2)nc2ccccc21`, the concentration for half-maximal inhibition (IC50) at Carbonic anhydrase 9 [1], on Carbonic anhydrase 12, against Carbonic anhydrase 2 [2] and at Carbonic anhydrase 1 [3] was above 360 nM throughout.
For the molecule `Cn1c(-c2ccccc2)nc2cc(S(N)(=O)=O)ccc21`, the 50% inhibitory concentration (IC50) against Carbonic anhydrase 9 [1], on Carbonic anhydrase 12, against Carbonic anhydrase 2 [2] and at Carbonic anhydrase 1 [3] was above 360 nM throughout.
As for `NS(=O)(=O)c1ccc(C(=O)NN2C(=O)c3c(Br)c(Br)c(Br)c(Br)c3C2=O)cc1`, the Kis on Carbonic anhydrase 9 [9] worked out at 3 nM.
Consider `NS(=O)(=O)c1ccc2[nH]c(-c3ccccn3)nc2c1`, for which the 50% inhibitory concentration (IC50) against Carbonic anhydrase 9 [1], against Carbonic anhydrase 12, against Carbonic anhydrase 2 [2] and against Carbonic anhydrase 1 [3] was above 360 nM throughout.
Regarding `COc1ccc(C2CC(c3cccs3)=NN2c2ccc(S(N)(=O)=O)cc2)cc1OC` (stereo unspecified), the Ki on Carbonic anhydrase 1 [4] was found to be 24.2 nM; on Carbonic anhydrase 2 [5], 37.3 nM.
Consider `O=[N+]([O-])c1ccccc1-n1nc(-c2ccccc2)c(/N=N/c2ccc(Br)cc2)c1-c1ccccc1`, for which the inhibitory constant (Ki) was 0.68 nM on Carbonic anhydrase 2 [7] and 1.06 nM at Carbonic anhydrase 1 [8].
`NS(=O)(=O)c1ccc(C(=O)NN2C(=O)c3cccc4cccc(c34)C2=O)cc1` gave a Kis on Carbonic anhydrase 9 [9] of 3 nM.
For the molecule `Cn1c(-c2ccc(Cl)cc2)nc2cc(C(=O)O)ccc21`, the IC50 at Carbonic anhydrase 9 [1], at Carbonic anhydrase 12, against Carbonic anhydrase 2 [2] and on Carbonic anhydrase 1 [3] was above 360 nM each time.
Regarding `NS(=O)(=O)c1ccc(N2N=C(c3cccs3)CC2c2ccc(C(F)(F)F)cc2)cc1` (stereo unspecified), the Ki is 24.2 nM at Carbonic anhydrase 1 [4] and 37.3 nM at Carbonic anhydrase 2 [5].
Consider `Cn1c(-c2ccc(Cl)cc2)nc2cc(C(N)=O)ccc21`, for which the IC50 against Carbonic anhydrase 9 [1], against Carbonic anhydrase 12, against Carbonic anhydrase 2 [2] and at Carbonic anhydrase 1 [3] was above 360 nM in each case.
`Cn1c(-c2ccc(Cl)cc2)nc2cc(S(N)(=O)=O)ccc21`: the IC50 at Carbonic anhydrase 9 [1], against Carbonic anhydrase 12, on Carbonic anhydrase 2 [2] and against Carbonic anhydrase 1 [3] was above 360 nM throughout.
Turning to `Cn1c(-c2ccccc2)nc2cc(C(N)=O)ccc21`, the IC50 against Carbonic anhydrase 9 [1], against Carbonic anhydrase 12, against Carbonic anhydrase 2 [2] and against Carbonic anhydrase 1 [3] was above 360 nM each time.
Regarding `NS(=O)(=O)c1ccc(N2N=C(c3cccs3)CC2c2ccc(Cl)cc2)cc1` (stereo unspecified), the figures for the inhibitory constant (Ki) at Carbonic anhydrase 1 [4] and on Carbonic anhydrase 2 [5] were 24.2 nM and 37.3 nM, respectively.
In turn, `NS(=O)(=O)c1ccc(C(=O)NN2C(=O)c3cccc4cc([N+](=O)[O-])cc(c34)C2=O)cc1` registered a Kis on Carbonic anhydrase 9 [9] of 3 nM.
With `NS(=O)(=O)c1ccc(N2N=C(c3cccs3)CC2c2ccc(F)cc2)cc1` (stereo unspecified), the inhibition constant (Ki) on Carbonic anhydrase 1 [4] amounted to 24.2 nM; at Carbonic anhydrase 2 [5], 37.3 nM.
For `NS(=O)(=O)c1ccc2[nH]c(-c3ccc(Cl)cc3)nc2c1`, the IC50 against Carbonic anhydrase 9 [1], on Carbonic anhydrase 12, on Carbonic anhydrase 2 [2] and at Carbonic anhydrase 1 [3] was above 360 nM each time.
On to `Cn1c(-c2ccc(Cl)cc2)nc2cc(B(O)O)ccc21`, for which the concentration for half-maximal inhibition (IC50) on Carbonic anhydrase 9 [1], on Carbonic anhydrase 12, against Carbonic anhydrase 2 [2] and at Carbonic anhydrase 1 [3] was above 360 nM in each case.
Regarding `Cn1c(-c2ccccc2)nc2cc(C(=O)NO)ccc21`, the half-maximal inhibitory concentration (IC50) on Carbonic anhydrase 9 [1], against Carbonic anhydrase 12, on Carbonic anhydrase 2 [2] and at Carbonic anhydrase 1 [3] was above 360 nM in each case.
As to `COc1ccccc1[SeH]`, the affinity on Carbonic anhydrase 7 corresponds to a Ki of 760 nM.
Take `Brc1ccc(/N=N/c2c(-c3ccccc3)nn(-c3ccccc3)c2-c2ccccc2)cc1`: the Ki at Carbonic anhydrase 2 [7] is 0.68 nM; at Carbonic anhydrase 1 [8], 1.06 nM.
The like results for `Brc1ccc(/N=N/c2c(-c3ccccc3)nn(-c3ccc(Br)cc3)c2-c2ccccc2)cc1` were, in that order, 0.68 nM and 1.06 nM.
As to `Cn1c(-c2ccccc2)nc2cc(C(=O)O)ccc21`, the 50% inhibitory concentration (IC50) against Carbonic anhydrase 9 [1], against Carbonic anhydrase 12, against Carbonic anhydrase 2 [2] and on Carbonic anhydrase 1 [3] was above 360 nM throughout.
For `[SeH]c1ccccc1`, the inhibition constant (Ki) at Carbonic anhydrase 7 is 760 nM; at Carbonic anhydrase 9 [6] it was 180 nM.
Take `Cn1c(-c2ccccn2)nc2cc(S(N)(=O)=O)ccc21`: the 50% inhibitory concentration (IC50) on Carbonic anhydrase 9 [1] was 6.6 nM; against Carbonic anhydrase 12, 9.9 nM; at Carbonic anhydrase 2 [2], above 360 nM; at Carbonic anhydrase 1 [3], above 360 nM.
As for `COc1ccc(C2CC(c3cccs3)=NN2c2ccc(S(N)(=O)=O)cc2)cc1` (stereo unspecified), the results for the inhibitory constant (Ki) at Carbonic anhydrase 1 [4] and on Carbonic anhydrase 2 [5] were 24.2 nM and 37.3 nM, respectively.
As to `NS(=O)(=O)c1ccc(N2N=C(c3cccs3)CC2c2ccccc2)cc1` (stereo unspecified), the inhibition constant Ki at Carbonic anhydrase 1 [4] stood at 24.2 nM; on Carbonic anhydrase 2 [5] it was 80.6 nM.
`NS(=O)(=O)c1ccc(C(=O)NN2C(=O)c3ccccc3C2=O)cc1`: the Kis on Carbonic anhydrase 9 [9] amounted to 3 nM.
For `COc1ccc([SeH])cc1`, the inhibitory constant (Ki) at Carbonic anhydrase 7 was 760 nM; on Carbonic anhydrase 9 [6], 180 nM.
As for `CCn1nc(-c2ccccc2)c(/N=N/c2ccc(Br)cc2)c1-c1ccccc1`, the Ki on Carbonic anhydrase 2 [7] is 0.68 nM; on Carbonic anhydrase 1 [8], 1.06 nM.
For `Cn1nc(-c2ccccc2)c(/N=N/c2ccc(Br)cc2)c1-c1ccccc1`, the values for the Ki at Carbonic anhydrase 2 [7] and at Carbonic anhydrase 1 [8] were 0.68 nM and 1.06 nM, respectively.
The like results for `Cc1ccc(C)c(-n2nc(-c3ccccc3)c(/N=N/c3ccc(Br)cc3)c2-c2ccccc2)c1` were, in that order, 0.68 nM and 1.06 nM.
As for `NS(=O)(=O)c1ccc(CCN2C(=O)c3ccc(C(=O)O)cc3C2=O)cc1`, the inhibition constant (Ki) on Carbonic anhydrase 4 is 317 nM; at Carbonic anhydrase 2 [10], 25.9 nM; at Carbonic anhydrase 9 [11], 54.1 nM; at Carbonic anhydrase 1 [12], 54.1 nM.
Turning to `[SeH]c1ccc2ccccc2c1`, the figures for the Ki at Carbonic anhydrase 7 and on Carbonic anhydrase 9 [6] were 760 nM and 460 nM, respectively.
`NS(=O)(=O)c1ccc(C(=O)NN2C(=O)c3cc(Cl)c(Cl)cc3C2=O)cc1` registered a Kis at Carbonic anhydrase 9 [9] of 3 nM.
Consider `NS(=O)(=O)c1ccc(N2N=C(c3cccs3)CC2c2cccs2)cc1` (stereo unspecified), for which the values for the Ki at Carbonic anhydrase 1 [4] and at Carbonic anhydrase 2 [5] were 24.2 nM and 37.3 nM, respectively.
On to `Cc1ccccc1[SeH]`, for which affinity at Carbonic anhydrase 7 was put at a Ki of 760 nM.
Regarding `COc1ccc(C2CC(c3cccs3)=NN2c2ccc(S(N)(=O)=O)cc2)c(OC)c1` (stereo unspecified), the results for the inhibitory constant (Ki) at Carbonic anhydrase 1 [4] and on Carbonic anhydrase 2 [5] were 24.2 nM and 37.3 nM, respectively.
As to `COC(=O)c1ccc2c(c1)C(=O)N(c1ccc(S(N)(=O)=O)cc1)C2=O`, the inhibition constant Ki on Carbonic anhydrase 4 is 317 nM; on Carbonic anhydrase 2 [10], 25.9 nM; on Carbonic anhydrase 9 [11], 46 nM; at Carbonic anhydrase 1 [12] it was 54.1 nM.
For `O=C(O)c1ccc2c(c1)C(=O)N(Cc1ccccc1)C2=O` the same measures were above 10000 nM, above 10000 nM, above 10000 nM and above 10000 nM.
Take `Fc1ccc([SeH])cc1`: the Ki on Carbonic anhydrase 7 is 760 nM; on Carbonic anhydrase 9 [6], 180 nM.
On to `COC(=O)c1ccc2c(c1)C(=O)N(Cc1ccccc1)C2=O`, for which the inhibitory constant (Ki) on Carbonic anhydrase 4, at Carbonic anhydrase 2 [10], at Carbonic anhydrase 9 [11] and on Carbonic anhydrase 1 [12] was above 10000 nM each time.
As for `COC(=O)c1ccc2c(c1)C(=O)N(c1ccccc1)C2=O`, the Ki at Carbonic anhydrase 4, on Carbonic anhydrase 2 [10], on Carbonic anhydrase 9 [11] and on Carbonic anhydrase 1 [12] was above 10000 nM throughout.
`O=C(O)c1ccc2c(c1)C(=O)N(c1ccccc1)C2=O`: the Ki at Carbonic anhydrase 4, at Carbonic anhydrase 2 [10], at Carbonic anhydrase 9 [11] and at Carbonic anhydrase 1 [12] was above 10000 nM each time.
With `CCOC(=O)c1ccc(N2C(=O)c3ccc(C(=O)O)cc3C2=O)cc1`, the inhibitory constant (Ki) on Carbonic anhydrase 4, on Carbonic anhydrase 2 [10], on Carbonic anhydrase 9 [11] and on Carbonic anhydrase 1 [12] was above 10000 nM in each case.
Consider `Cc1ccc([SeH])cc1`, for which the figures for the Ki on Carbonic anhydrase 7 and at Carbonic anhydrase 9 [6] were 760 nM and 180 nM, respectively.
Regarding `NS(=O)(=O)c1ccc(C(=O)NN2C(=O)c3c(Cl)c(Cl)c(Cl)c(Cl)c3C2=O)cc1`, the Kis at Carbonic anhydrase 9 [9] was determined as 3 nM.
Regarding `Cc1ccc(-n2nc(-c3ccccc3)c(/N=N/c3ccc(Br)cc3)c2-c2ccccc2)cc1C`, the inhibition constant (Ki) came out at 0.68 nM at Carbonic anhydrase 2 [7] and 1.06 nM at Carbonic anhydrase 1 [8].
For `COC(=O)c1ccc2c(c1)C(=O)N(c1ccc(C(=O)O)cc1)C2=O`, the Ki at Carbonic anhydrase 4, at Carbonic anhydrase 2 [10], on Carbonic anhydrase 9 [11] and at Carbonic anhydrase 1 [12] was above 10000 nM throughout.
Molecule `Cc1cccc(C)c1[SeH]` gave a Ki on Carbonic anhydrase 7 of 760 nM. In other words, the sub-micromolar range.
For `COC(=O)c1ccc2c(c1)C(=O)N(CCc1ccccc1)C2=O`, the inhibition constant Ki at Carbonic anhydrase 4, at Carbonic anhydrase 2 [10], at Carbonic anhydrase 9 [11] and at Carbonic anhydrase 1 [12] was above 10000 nM each time.

As usually defined, the IC50 is the concentration that inhibits the measured activity by half. Read a low IC50 as inhibition by little substance. As a reminder, the Ki is a dissociation constant, usually derived from enzyme kinetics or from competition with a known ligand.
